Measured values published in patent publication US10092529B2, “Necrosis inhibitors” (National Institute of Biological Sciences, Beijing, priority 2014, dated 2018).
Like-named read-outs stand apart in the source and are kept apart here.

Legend:
[1] = molecular target: hRIP1 kinase (recombinant full-length RIPK1 protein with N-terminal GST-tag) (Homo sapiens (Human), UniProt Q13546); assay: Kinase assay of RIPK1 (ADP-Glo); type: biochemical; details: for IC50: 161 nM RIPK1, 50 uM ATP, 20 uM MBP, 90 min
Chain of hRIP1 kinase (recombinant full-length RIPK1 protein with N-terminal GST-tag) (Q13546 whole entry): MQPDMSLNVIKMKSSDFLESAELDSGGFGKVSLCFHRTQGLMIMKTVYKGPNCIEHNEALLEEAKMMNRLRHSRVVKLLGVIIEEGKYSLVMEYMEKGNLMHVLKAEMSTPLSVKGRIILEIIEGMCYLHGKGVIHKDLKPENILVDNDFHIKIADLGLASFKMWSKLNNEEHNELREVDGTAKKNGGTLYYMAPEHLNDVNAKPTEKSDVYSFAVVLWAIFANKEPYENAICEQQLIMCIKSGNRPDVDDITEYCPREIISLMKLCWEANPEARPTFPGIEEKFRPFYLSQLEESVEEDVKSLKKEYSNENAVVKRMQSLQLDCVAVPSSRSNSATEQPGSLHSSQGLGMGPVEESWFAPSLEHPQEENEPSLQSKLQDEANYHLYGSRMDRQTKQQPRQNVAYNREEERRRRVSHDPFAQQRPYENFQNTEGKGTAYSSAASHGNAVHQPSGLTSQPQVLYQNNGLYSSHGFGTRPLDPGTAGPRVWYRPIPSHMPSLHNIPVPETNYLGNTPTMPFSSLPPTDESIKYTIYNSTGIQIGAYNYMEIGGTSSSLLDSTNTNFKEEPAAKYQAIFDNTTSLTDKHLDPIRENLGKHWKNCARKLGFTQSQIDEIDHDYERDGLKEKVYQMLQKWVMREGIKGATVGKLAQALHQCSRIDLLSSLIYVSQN
Procedure: Materials: Recombinant full-length RIPK1 protein with N-terminal GST-tag (Cat#R07-34G) was purchased from SignalChem. The ADP-Glo™ kinase assay kit (Cat#V9102) was from Promega. MBP (cat# M2295) protein and all the other chemicals were from Sigma. The 384-well assay plates (Cat#3674, white, opaque) were purchased from Corning.
Kinase activity assay and data analysis: The RIPK1 kinase assay was performed in white 384-well plate. The assay buffer contained 25 mM HEPES (pH7.2), 20 mM MgCl2, 12.5 mM MnCl2, 5 mM EGTA, 2 mM EDTA, 12.5 mM β-glycerol phosphate and 2 mM DTT. RIPK1 was first incubated with compounds or DMSO control for […], then ATP/MBP substrate mixture was added to initiate the reaction. The final concentration of RIPK1 was 161 nM, while the final concentration of ATP was 50 uM, and MBP 20 uM. After 90 min reaction at room temperature, the ADP-Glo reagent and detection solution were added following the technical manual of ADP-Glo™ kinase assay kit (Promega). The luminescence was measured on PerkinElmer Enspire. The data was analyzed using Graphpad Prism (GraphPad Software; www.graphpad.com). The curves were fitted using a non-linear regression model with a sigmoidal dose response.

[2] = tested on: HT-29 cells; assay: Necrosis assay: TNF-α/Smac mimetic/z-VAD induced necrosis, cell viability by CellTiter-Glo; type: cell-based
Procedure: HT-29 cells were cultured in McCoy's 5A culture medium (Invitrogen). On day one, HT-29 cells were plated in 96-well assay plates at density of 2,500-3,500 cells per well. On day two, necrosis were induced by adding 20 ng/ml TNF-α (T), 100 nM Smac mimetic (S), and […] z-VAD (Z). At the same time, […] compound from a chemical library of ˜200,000 compounds was delivered into each well. After 24 hrs treatment, cell viability was determined by measuring ATP level using the CellTiter-Glo Luminescent Cell Viability Assay kit. A CellTiter-Glo Assay (Promega) was performed according to the manufacturer's instructions Luminescence was recorded with a PerkinElmer EnSpire Multimode Plate Reader. Survived cells were normalized to those cells treated with DMSO. Nec-1 was used as a positive control for screening necrosis inhibitors. Data are represented as mean±standard deviation of duplicates.
Dose-dependent inhibition of necrosis by compound #9 and the derivative compounds in HT-29 cells were determined by measuring ATP levels as described above.

[3] = Homo sapiens, necrosis induced by TNF-α/Smac mimetic/z-VAD, 24 hrs, ATP level, read-out: Cell viability assay, EC50
[4] = inhibition of necrosis, ATP levels, range given in nM, read-out: EC50 (necrosis activity)
[5] = Homo sapiens, inhibition of necrosis, ATP levels, range given in uM, read-out: EC50 (necrosis activity)
[6] = inhibition of necrosis, ATP levels, range given in uM, read-out: EC50 (necrosis activity)

In the case of `CCC(C)(C)C(=O)N1C(=O)C[C@H]1c1ccccc1` [Compound 24, (S)-1-(2,2-dimethylbutanoyl)-4-phenylazetidin-2-one], the IC50 [1] is reported as 0.0198 µM, the EC50 [2, 3] is reported as 7 nM and the EC50 [2, 4] is reported as 1 to 1000 nM.
`CCC(C)(C)C(=O)N1C(=O)CC1c1cccc(N=[N+]=[N-])c1` (stereo not drawn) [Compound 25, 4-(3-azidophenyl)-1-(2,2-dimethylbutanoyl)azetidin-2-one] showed an IC50 [1] of 0.152 µM, an EC50 [2, 3] of 556 nM and an EC50 [2, 4] of 1 to 1000 nM.
`CCC(C)(C)C(=O)N1CCCC1c1cc(F)cc(F)c1F` (stereo not drawn) [Compound 10, 2,2-dimethyl-1-(2-(2,3,5-trifluorophenyl)pyrrolidin-1-yl)butan-1-one] showed an IC50 [1] of 0.0225 µM, an EC50 [2, 3] of 9.88 nM and an EC50 [2, 4] of 1 to 1000 nM.
For `CCC(C)(C)C(=O)N1C[C@H](O)C[C@H]1c1ccccc1` [Compound 15, 1-((2S,4R)-4-hydroxy-2-phenylpyrrolidin-1-yl)-2,2-dimethylbutan-1-one], the IC50 [1] was 0.46 µM, the EC50 [2, 3] was 396 nM and the EC50 [2, 4] was 1 to 1000 nM.
`O=C(C=CCl)N1C(=O)C[C@H]1c1ccccc1` [Compound 40, (S)-1-(3-chloroacryloyl)-4-phenylazetidin-2-one] was tested, and the EC50 [2, 5] was 1000 to 100000 nM.
`C=CC(C)(C)C(=O)N1CCC1c1ccco1` (stereo not drawn) [Compound 64] was tested, and the EC50 [2, 6] was 1000 to 1e+06 nM.
`CCC(C)(C)C(=O)N1CCCC1c1ccccc1` (stereo not drawn) [Compound 4, 2,2-dimethyl-1-(2-phenylpyrrolidin-1-yl)butan-1-one] gave an EC50 [2, 4] of 1 to 1000 nM.
With `CCC(C)(C)C(=O)N1CC[C@H](O)[C@H]1c1ccccc1` [Compound S1, 1-((2R,3S)-3-hydroxy-2-phenylpyrrolidin-1-yl)-2,2-dimethylbutan-1-one] the EC50 [2, 5] was 1000 to 10000 nM.
Molecule `CCC(C)(C)C(=O)N1CCC1c1ccccc1F` (stereo not drawn) [Compound 67] has an EC50 [2, 6] of 1000 to 1e+06 nM.
`C=CC(C)(C)C(=O)N1C(=O)C[C@H]1c1ccccc1` [Compound 38, (S)-1-(2,2-dimethylbut-3-enoyl)-4-phenylazetidin-2-one] gave an IC50 [1] of 0.0137 µM, an EC50 [2, 3] of 8.39 nM and an EC50 [2, 4] of 1 to 1000 nM.
For `CC(C)(C)S(=O)(=O)N1C(=O)C[C@H]1c1ccccc1` [Compound 45, (S)-1-(tert-butylsulfonyl)-4-phenylazetidin-2-one], the EC50 [2, 5] was 1000 to 100000 nM.
With `CCC(C)(C)C(=O)N1CCCC1c1cccc(F)c1` (stereo not drawn) [Compound 9, 1-(2-(3-fluorophenyl)pyrrolidin-1-yl)-2,2-dimethylbutan-1-one] the EC50 [2, 4] was 1 to 1000 nM.
Molecule `C#Cc1cccc(C2CC(=O)N2C(=O)C(C)(C)CC)c1` (stereo not drawn) [Compound 27, 1-(2,2-dimethylbutanoyl)-4-(3-ethynylphenyl)azetidin-2-one] has an EC50 [2, 4] of 1 to 1000 nM.
`C=CC(C)(C)C(=O)N1CCCC1c1ccccc1` (stereo not drawn) [Compound 69] gave an EC50 [2, 6] of 1000 to 1e+06 nM.
With `C=CC(C)(C)C(=O)N1C=CC=C[C@H]1C1CCCCC1` [Compound 57] the EC50 [2, 6] was 1000 to 1e+06 nM.
For `CCC(C)(C)C(=O)N1C(=O)N(C)C[C@H]1c1ccccc1` [Compound 31, (R)-3-(2,2-dimethylbutanoyl)-1-methyl-4-phenylimidazolidin-2-one], the IC50 [1] was 1.06 µM, the EC50 [2, 3] was 609 nM and the EC50 [2, 4] was 1 to 1000 nM.
Molecule `CC(F)(F)C(C)(C)C(=O)N1CCCC1c1ccccc1` (stereo not drawn) [Compound S10, 3,3-difluoro-2,2-dimethyl-1-(2-phenylpyrrolidin-1-yl) butan-1-one] has an EC50 [2, 4] of 1 to 1000 nM.
`CC(C)S(=O)(=O)N1C(=O)C[C@H]1c1ccccc1` [Compound 42, (S)-1-(isopropylsulfonyl)-4-phenylazetidin-2-one] showed an EC50 [2, 5] of 1000 to 100000 nM.
With `CCC(C)(C)C(=O)n1cccc1-c1ccccc1` [Compound 78, 2,2-dimethyl-1-(2-phenyl-1H-pyrrol-1-yl)butan-1-one] the EC50 [2, 5] was 1000 to 100000 nM.
Molecule `C=CC(C)(C)C(=O)N1CC=C[C@H]1c1ccccc1` [Compound 73] has an EC50 [2, 6] of 1000 to 1e+06 nM.
`CCC(C)(C)C(=O)N1CCC1c1ccc(C)s1` (stereo not drawn) [Compound 60] showed an EC50 [2, 6] of 1000 to 1e+06 nM.
Work on `C=CC(C)(C)C(=O)N1CC[C@H]1c1ccccc1` [Compound 68] yielded an EC50 [2, 6] of 1000 to 1e+06 nM.
For `CCC(C)(C)C(=O)N1COC[C@@H]1c1ccccc1` [Compound 7, (S)-2,2-dimethyl-1-(4-phenyloxazolidin-3-yl)butan-1-one], the EC50 [2, 5] was 1000 to 100000 nM.
In the case of `CCC(C)(C)C(=O)N1C[C@@H](O)C[C@H]1c1ccccc1` [Compound 13, 1-((2S,4S)-4-hydroxy-2-phenylpyrrolidin-1-yl)-2,2-dimethylbutan-1-one], the inhibition at 2 µM [1] is reported as 69%, the EC50 [2, 5] is reported as 1000 to 10000 nM and the EC50 [2, 3] is reported as 2620 nM.
In the case of `CCC(C)(C)C(=O)N1CCC1c1ccccc1` (stereo not drawn) [Compound 2, 2,2-dimethyl-1-(2-phenylazetidin-1-yl)butan-1-one], the IC50 [1] is reported as 0.0348 µM, the EC50 [2, 3] is reported as 29.6 nM and the EC50 [2, 4] is reported as 1 to 1000 nM.
`CC(C)(C)[S+]([O-])N1CC[C@H]1c1ccccc1` (stereo partly drawn) [Compound S7, (2S)-1-(tert-butylsulfinyl)-2-phenylazetidine] showed an EC50 [2, 5] of 1000 to 10000 nM.
Molecule `CCC(C)(C)C(=O)N1C=CC=CC1c1ccccc1` (stereo not drawn) [Compound 55] has an EC50 [2, 6] of 1000 to 1e+06 nM.
For `CCC(C)(C)C(=O)N1CCCC1C1CCCCC1` (stereo not drawn) [Compound 5, 1-(2-cyclohexylpyrrolidin-1-yl)-2,2-dimethylbutan-1-one], the EC50 [2, 4] was 1 to 1000 nM.
In the case of `CC(F)(F)C(C)(C)C(=O)N1CCC=C[C@H]1C1CCCCC1` [Compound S13], the EC50 [2, 5] is reported as 1000 to 100000 nM.
`O=C1C[C@@H](c2ccccc2)N1CC1CC1` [Compound 50, (S)-1-(cyclopropylmethyl)-4-phenylazetidin-2-one] was tested, and the EC50 [2, 5] was 1000 to 100000 nM.
Work on `CCC(C)(C)C(=O)N1NC(=O)CC1c1ccccc1` (stereo not drawn) [Compound 34, 1-(2,2-dimethylbutanoyl)-5-phenylpyrazolidin-3-one] yielded an EC50 [2, 5] of 1000 to 100000 nM.
`CCC(C)(C)C(=O)N1CCC1c1ncc(C)s1` (stereo not drawn) [Compound 65] showed an EC50 [2, 6] of 1000 to 1e+06 nM.
`C=CC(C)(C)C(=O)N1OCCC1c1ccccc1` (stereo not drawn) [Compound 77] was tested, and the EC50 [2, 6] was 1000 to 1e+06 nM.
In the case of `CCC(C)(C)C(=O)N1CCOC1c1ccccc1` (stereo not drawn) [Compound 6, 2,2-dimethyl-1-(2-phenyloxazolidin-3-yl)butan-1-one], the EC50 [2, 5] is reported as 1000 to 100000 nM.
With `CCC(C)(C)C(=O)N1CC[C@H]1c1ccccc1` [Compound 3, (S)-2,2-dimethyl-1-(2-phenylazetidin-1-yl)butan-1-one] the EC50 [2, 4] was 1 to 1000 nM.
With `CCC(C)(C)C(=O)N1CCOCC1c1ccccc1` (stereo not drawn) [Compound 12, 2,2-dimethyl-1-(3-phenylmorpholino)butan-1-one] the EC50 [2, 5] was 1000 to 100000 nM.
Work on `CCC(C)(C)C(=O)N1CCC1c1cccc(F)c1` (stereo not drawn) [Compound 71] yielded an EC50 [2, 6] of 1000 to 1e+06 nM.
`CCC(C)(C)C(=O)N1CCN(C(C)=O)CC1c1ccccc1` (stereo not drawn) [Compound 18, 1-(4-acetyl-2-phenylpiperazin-1-yl)-2,2-dimethylbutan-1-one] was tested, and the EC50 [2, 5] was 1000 to 100000 nM.
`CCC(C)(C)C(=O)N1C[C@@H](O)[C@H]1c1ccccc1` [Compound S4, 1-((2R,3R)-3-hydroxy-2-phenylazetidin-1-yl)-2,2-dimethylbutan-1-one] gave an EC50 [2, 5] of 1000 to 10000 nM.
Work on `CCC(C)(C)C(=O)N1C[C@H](O)[C@H]1c1ccccc1` [Compound S5, 1-((2R,3S)-3-hydroxy-2-phenylazetidin-1-yl)-2,2-dimethylbutan-1-one] yielded an EC50 [2, 5] of 1000 to 100000 nM.
Molecule `CCC(C)(C)C(=O)N1CCC1c1cccs1` (stereo not drawn) [Compound 59] has an EC50 [2, 6] of 1000 to 1e+06 nM.
Work on `C#CC(C)(C)C(=O)N1CC[C@H]1c1ccccc1` [Compound 46, (S)-2,2-dimethyl-1-(2-phenylazetidin-1-yl)but-3-yn-1-one] yielded an EC50 [2, 4] of 1 to 1000 nM.
`CCC(C)(C)C(=O)N1CC1c1ccccc1` (stereo not drawn) [Compound 1, 2,2-dimethyl-1-(2-phenylaziridin-1-yl)butan-1-one] showed an EC50 [2, 5] of 1000 to 100000 nM.
With `CCC(C)(C)C(=O)N1C(=O)CC1c1cccc(Br)c1` (stereo not drawn) [Compound 26, 4-(3-bromophenyl)-1-(2,2-dimethylbutanoyl)azetidin-2-one] the EC50 [2, 4] was 1 to 1000 nM.
`CCC(C)(C)C(=O)N1NCCC1c1ccccc1` (stereo not drawn) [Compound 21, 2,2-dimethyl-1-(5-phenylpyrazolidin-1-yl)butan-1-one] showed an EC50 [2, 4] of 1 to 1000 nM.
`CCC(C)(C)C(=O)N1C(=O)OC[C@H]1c1ccccc1` [Compound 23, (R)-3-(2,2-dimethylbutanoyl)-4-phenyloxazolidin-2-one] showed an EC50 [2, 4] of 1 to 1000 nM.
For `CC(=O)N1C(=O)OC[C@H]1c1ccccc1` [Compound 39, (R)-3-acetyl-4-phenyloxazolidin-2-one], the EC50 [2, 5] was 1000 to 10000 nM.
